Values after ≈ are worked out from the molar mass of the structure shown.

The subject of this assay is HepG2. The assay can be described thus: Cytotoxicity against human HepG2 cells after 24 hrs by CCK-8 assay. It is filed as functional, cell-based. Conditions: HepG2, 24 h.

Turning to `CC(=O)OC[C@H]1O[C@@H](O[C@H]2[C@H](O[C@H]3[C@H](O)C[C@]4(C)[C@H]5C[C@@H](O)[C@@H]6[C@@H](/C(C)=C\CC=C(C)C)CC[C@@]6(C)[C@]5(C)CC[C@H]4C3(C)C)O[C@H](CO)[C@@H](O)[C@@H]2O)[C@H](O)[C@@H](O)[C@@H]1O`, it took 40 µg/mL (≈ 48.5 µM) to reach half-maximal inhibition (IC50).
`C=C(CCC=C(C)C)[C@H]1CC[C@]2(C)[C@@H]1[C@H](O)C[C@@H]1[C@@]3(C)C[C@@H](O)[C@H](O[C@@H]4O[C@H](CO)[C@@H](O)[C@H](O)[C@H]4O[C@@H]4O[C@H](COC(C)=O)[C@@H](O)[C@H](O)[C@H]4O)C(C)(C)[C@@H]3CC[C@]12C` displayed an IC50 of 38 µg/mL (≈ 46.1 µM).
Under `CC(C)=CCC[C@](C)(O)[C@H]1CC[C@]2(C)[C@@H]1[C@H](O)C[C@@H]1[C@@]3(C)CC[C@H](O[C@@H]4O[C@H](CO)[C@@H](O)[C@H](O)[C@H]4O[C@@H]4O[C@H](CO)[C@@H](O)[C@H](O)[C@H]4O)C(C)(C)[C@@H]3CC[C@]12C` stands 54 µg/mL (≈ 68.8 µM).
